`O=C(O)CCNCc1ccc(N/C(=C2\C(=O)Nc3ccc([N+](=O)[O-])cc32)c2ccccc2)cc1` [Example 242, (Z)-3-{1-[4-(2-carboxy-ethylaminomethyl)-phenylamino]-1-phenyl-methylidene}-5-nitro-2-indolinone] had a melting point of 220 to 222 °C. The figure for `CN(C)C(=O)CCNCc1ccc(N/C(=C2\C(=O)Nc3ccc([N+](=O)[O-])cc32)c2ccccc2)cc1` [Example 243, (Z)-3-{1-[4-(2-dimethylaminocarbonyl-ethylaminomethyl)-phenylamino]-1-phenyl-methylidene}-5-nitro-2-indolinone] is 215 to 217 °C; for `CC(C)(C)OC(=O)N1CCN(Cc2ccc(N/C(=C3\C(=O)Nc4ccc([N+](=O)[O-])cc43)c3ccccc3)cc2)CC1` [Example 244, (Z)-3-{1-[4-(4-tert.butoxycarbonyl-piperazin-1-ylmethyl)-phenylamino]-1-phenyl-methylidene}-5-nitro-2-indolinone] it is 236 to 237 °C (dec.). In the case of `CC(=O)N1CCN(Cc2ccc(N/C(=C3\C(=O)Nc4ccc([N+](=O)[O-])cc43)c3ccccc3)cc2)CC1` [Example 246, (Z)-3-{1-[4-(4-acetylpiperazin-1-ylmethyl)-phenylamino]-1-phenyl-methylidene}-5-nitro-2-indolinone] it was 275 to 277 °C; in that of `NC(=O)C1CCN(Cc2ccc(N/C(=C3\C(=O)Nc4ccc([N+](=O)[O-])cc43)c3ccccc3)cc2)CC1` [Example 247, (Z)-3-{1-[4-(4-aminocarbonyl-piperidinomethyl)-phenylamino]-1-phenyl-methylidene}-5-nitro-2-indolinone], 296 to 297 °C. In the case of `CNC(=O)C1CCN(Cc2ccc(N/C(=C3\C(=O)Nc4ccc([N+](=O)[O-])cc43)c3ccccc3)cc2)CC1` [Example 248, (Z)-3-{1-[4-(4-methylaminocarbonyl-piperidinomethyl)-phenylamino]-1-phenyl-methylidene}-5-nitro-2-indolinone] it was 263 to 265 °C; in that of `CN(C)C(=O)C1CCN(Cc2ccc(N/C(=C3\C(=O)Nc4ccc([N+](=O)[O-])cc43)c3ccccc3)cc2)CC1` [Example 249, (Z)-3-{1-[4-(4-dimethylaminocarbonyl-piperidinomethyl)-phenylamino]-1-phenyl-methylidene}-5-nitro-2-indolinone], 272 to 273 °C. `O=C1Nc2ccc([N+](=O)[O-])cc2/C1=C(/Nc1ccc(CN2CCC(CO)CC2)cc1)c1ccccc1` [Example 250, (Z)-3-{1-[4-(4-hydroxymethyl-piperidinomethyl)-phenylamino]-1-phenyl-methylidene}-5-nitro-2-indolinone] gave a melting point of 227 to 228 °C. Take `CC1(O)CCN(Cc2ccc(N/C(=C3\C(=O)Nc4ccc([N+](=O)[O-])cc43)c3ccccc3)cc2)CC1` [Example 251, (Z)-3-{1-[4-(4-hydroxy-4-methyl-piperidinomethyl)-phenylamino]-1-phenyl-methylidene}-5-nitro-2-indolinone]: the melting point fell in the range of 186 to 187 °C. In the case of `O=C(O)CCNCc1cccc(N/C(=C2\C(=O)Nc3ccc([N+](=O)[O-])cc32)c2ccccc2)c1` [Example 252, (Z)-3-{1-[3-(2-carboxyethylaminomethyl)-phenylamino]-1-phenyl-methylidene}-5-nitro-2-indolinone] it was 247 to 249 °C; in that of `CN(C)C(=O)CCNCc1cccc(N/C(=C2\C(=O)Nc3ccc([N+](=O)[O-])cc32)c2ccccc2)c1` [Example 253, (Z)-3-{1-[3-(2-dimethylaminocarbonyl-ethylaminomethyl)-phenylamino]-1-phenyl-methylidene}-5-nitro-2-indolinone], 177 to 179 °C; in that of `CNCCc1ccc(N/C(=C2\C(=O)Nc3ccc([N+](=O)[O-])cc32)c2ccccc2)cc1` [Example 254, (Z)-3-{1-[4-(2-methylamino-ethyl)-phenylamino]-1-phenyl-methylidene}-5-nitro-2-indolinone], 250 to 252 °C. The figure for `CCNCCc1ccc(N/C(=C2\C(=O)Nc3ccc([N+](=O)[O-])cc32)c2ccccc2)cc1` [Example 255, (Z)-3-{1-[4-(2-ethylamino-ethyl)-phenylamino]-1-phenyl-methylidene}-5-nitro-2-indolinone] is 235 to 237 °C; for `O=C1Nc2ccc([N+](=O)[O-])cc2/C1=C(/Nc1ccc(CCNCCO)cc1)c1ccccc1` [Example 256, (Z)-3-{1-[4-(2-(2-hydroxyethylamino)-ethyl)-phenylamino]-1-phenyl-methylidene}-5-nitro-2-indolinone] it is 236 to 238 °C.

Turning to `Br.COCCNCCc1ccc(N/C(=C2\C(=O)Nc3ccc([N+](=O)[O-])cc32)c2ccccc2)cc1` [Example 257, (Z)-3-{1-[4-(2-(2-methoxyethylamino)-ethyl)-phenylamino]-1-phenyl-methylidene}-5-nitro-2-indolinone-hydrobromide], the melting point was 297 to 299 °C. In the case of `O=C(O)CNCCc1ccc(N/C(=C2\C(=O)Nc3ccc([N+](=O)[O-])cc32)c2ccccc2)cc1` [Example 258, (Z)-3-{1-[4-(2-carboxymethylamino-ethyl)-phenylamino]-1-phenyl-methylidene}-5-nitro-2-indolinone] it was 242 to 243 °C (dec.).

`CC1CCN(CCc2ccc(N/C(=C3\C(=O)Nc4ccc([N+](=O)[O-])cc43)c3ccccc3)cc2)CC1` [Example 259, (Z)-3-{1-[4-(2-(4-methylpiperidino)-ethyl)-phenylamino]-1-phenyl-methylidene}-5-nitro-2-indolinone] had a melting point of 252 to 253 °C. In the case of `O=C1Nc2ccc([N+](=O)[O-])cc2/C1=C(/Nc1ccc(CCN2CCC(O)CC2)cc1)c1ccccc1` [Example 260, (Z)-3-{1-[4-(2-(4-hydroxypiperidino)-ethyl)-phenylamino]-1-phenyl-methylidene}-5-nitro-2-indolinone] it was 274 to 276 °C; in that of `COC1CCN(CCc2ccc(N/C(=C3\C(=O)Nc4ccc([N+](=O)[O-])cc43)c3ccccc3)cc2)CC1` [Example 261, (Z)-3-{1-[4-(2-(4-methoxypiperidino)-ethyl)-phenylamino]-1-phenyl-methylidene}-5-nitro-2-indolinone], 212 to 214 °C. In the case of `CCOC(=O)C1CCN(CCc2ccc(N/C(=C3\C(=O)Nc4ccc([N+](=O)[O-])cc43)c3ccccc3)cc2)CC1` [Example 262, (Z)-3-{1-[4-(2-(4-ethoxycarbonyl-piperidino)-ethyl)-phenylamino]-1-phenyl-methylidene}-5-nitro-2-indolinone] it was 208 to 213 °C; in that of `O=C1Nc2ccc([N+](=O)[O-])cc2/C1=C(/Nc1ccc(CCN2CCC(C(=O)O)CC2)cc1)c1ccccc1` [Example 263, (Z)-3-{1-[4-(2-(4-carboxypiperidino)-ethyl)-phenylamino]-1-phenyl-methylidene}-5-nitro-2-indolinone], 287 to 288 °C; in that of `CN(C)C(=O)C1CCN(CCc2ccc(N/C(=C3\C(=O)Nc4ccc([N+](=O)[O-])cc43)c3ccccc3)cc2)CC1` [Example 264, (Z)-3-{1-[4-(2-(4-dimethylaminocarbonyl-piperidino)-ethyl)-phenylamino]-1-phenyl-methylidene}-5-nitro-2-indolinone], 288 °C (dec.).

The record behind these values is patent publication US6855710B2, “Substituted indolines with an inhibitory effect on various kinases and complexes of CDKs” (Boehringer Ingelheim Pharma KG, priority 1998, dated 2005).
